Measurements taken from patent publication US10300070B2, “Metabolically-activated drug conjugates to overcome resistance in cancer therapy” (The Brigham and Women's Hospital, Inc., priority 2014, dated 2019).

Assays:
Type in all cases: in vivo, mice
[1] = tested on: tumor tissue; assay: Whole tissue glucose levels from tumor homogenate after intratumoral injection; settings: docetaxel intratumoral injection, within 12 hours post-administration
Experimental: (§1) 1 million 4T-1 mouse mammary carcinoma cells suspended in 100 μL PBS were injected per left flank of 5-6 week old Balb/C (heterotopic) or mammary fat pad (orthotopic). Docetaxel (DTX) was dissolved in pure Ethanol at a concentration of 50 mg/ml mixed 1:1 with Polysorbate 80 (Tween 80) and brought to a final working concentration with PBS. Tumor volumes were assessed by the following formula: (Width×Width×length)/2 and values were utilized to calculate tumor specific growth rate (SGR) by the algorhythm (ln [V2/V1]/[t2−t1)] where V=volume and t=time in days^64. For in vivo analysis of 2-NBDG uptake, mice were treated as indicated (i.e. Docetaxel intratumoral or intravenously) and monitored until tumors reached ˜300 mm^3. Subsequently, mice were administered a 10 mg/kg i.v. injection of 2-NBDG 2 hours prior to sacrificing and harvesting tumors for confocal microscopic analysis by frozen section (described below). […] Glucose quantitation (mg/dL) was measured using the onetouch lifescan glucose monitor (Life Scan, Inc. Militipas, Calif.) by calculating mg of glucose per volume of tissue homogenate (in PBS) and normalized as a ratio of mg/dL of glucose to mg of tissue homogenized. Typically, >250 mg of tissue was homogenized in 50 μL of PBS to achieve a readable output.

[2] = tested on: residual tumor tissue; assay: Total intratumoral GSH in residual tumor of syngeneic mammary carcinoma; settings: DTX 10 mg/kg i.v., vs vehicle control cohorts
Experimental: G) Total intratumoral GSH obtained from residual tumor tissue homogenate of a syngeneic mammary carcinoma treated with vehicle or DTX (10 mg/kg i.v.). N=4 groups, ***p<0.001.
In vitro detection of glucose uptake was performed using 2-(N-7-Nitrobenz-2-oxa-1,3-diazol-4-yl)Amino)-2-Deoxyglucose (2-NBDG) (Invitrogen, Carlsbad Calif.), dissolved in DMSO to 50 mM. Cells were pre-treated with kinase inhibitors or vehicle for 3 hours in glucose- and phenol red-free media before addition of 50 μM 2-NBDG and subsequently read by FACS ex/em 488/535 nm. ROS was determined by pre-loading cells with CM-DCFDA (1 μM), washed 2 times with PBS and subsequently treated with H2O2 or vehicle; when kinase inhibitors were included in treatment, cells were first incubated with inhibitor for 3 hours prior to CM-DCFDA loading. Fluorescence was then determined by FACS ex/em 488/535 nm. For the following assays, cells were trypsinized and counted by Nexcelom cell counter (Lawrence, Mass.) prior to being subjected to analysis in order to achieve a quantitative value per cell: Reduced glutathione was determined using a colorimetric glutathione recycling system by DTNB following manufacturer protocol (Biovision, Milpitas Calif.). […] Protein synthesis was measured by two means 1. […] Fluorescence was detected by FACS as described below. […] GFP protein translation was determined by fluorescent microscopy. […]

[3] = tested on: CD44 and GLUT1; assay: Confocal microscopy of CD44 and GLUT-1 in residual tumors, orthotopic syngeneic mammary carcinoma model (4T-1); settings: 72 hours after docetaxel at MTD (10 mg/kg i.v.) vs vehicle
Experimental: as §1, with “output. […]” for “output.”

Structure (SMILES): CC(=O)O[C@@]12CO[C@@H]1C[C@H](O)[C@@]1(C)C(=O)[C@H](O)C3=C(C)[C@@H](OC(=O)[C@H](O)[C@@H](NC(=O)OC(C)(C)C)c4ccccc4)C[C@@](O)([C@@H](OC(=O)c4ccccc4)[C@H]21)C3(C)C [docetaxel]
- whole tissue glucose levels in tumor [1]: significantly higher
- whole cell GSH in residual tumor [2]: significant global increase
- expression of CD44 and GLUT1 in residual tumors [3]: enhanced expression of both CD44 and GLUT1
